Test results published in US9175013B2, “Fused aminodihydrothiazine derivatives” (Eisai R&D Management Co., Ltd., priority 2011, dated 2015).
Like-named read-outs stand apart in the source and are kept apart here.

Assay: Rat in vivo CNS penetration: plasma, brain and CSF concentrations by LC-MS/MS
Details: male, Sprague Dawley, po, 10 mg/kg, 10 mg/kg p.o.; for concentration at 2 h / Kp at 2 h: 2 h post-dose; for concentration at 4 h / Kp at 4 h: 4 h post-dose; for concentration at 6 h / Kp at 6 h: 6 h post-dose; for concentration at 8 h / Kp at 8 h: 8 h post-dose
Procedure: Rat In Vivo CNS Penetration Male Sprague Dawley rats were acquired from Charles River UK Ltd. (Margate, UK) and housed according to UK Home Office guidelines. Drugs were made up to the appropriate concentrations in 0.5% methyl cellulose. Animals were dosed orally (2 mL/kg) by gavage at the doses outlined in Tables 1 to 4 below. At the time points post-dosing, specified in the Tables 1 to 4 below the animals were administered an i.p. injection of sodium pentobarbitone (approximately 330 mg/kg for terminal anaesthesia). Using a guillotine, the animals were decapitated and trunk blood collected into 15 ml Falcon tubes containing 100 IU heparin. Blood was vortexed followed by centrifugation at 6000 rpm, 4° C. for 5 minutes. Plasma was collected for DMPK and ELISA assays and stored at −80° C. until use. Brains were dissected out and divided along the midline, weighed and stored at −80° C. until further use. Method for Analysis of Plasma, Brain and CSF Samples Test compound was prepared as a 1 mg free base/mL solution in DMSO, vortexed and sonicated for 5 min. The 1 mg/mL DMSO solution was diluted to 10 and 30 μg/mL acetonitrile stocks, by adding 10 μL to 990 μL acetonitrile and 30 μL to 970 acetonitrile, respectively. The 10 and 30 μg/mL acetonitrile stocks were then serially diluted 1:9 (v/v) (100 μL stock into 900 μL acetonitrile) to give the following solutions: 0.003, 0.01, 0.03, 0.1, 0.3, 1, 3, 10 and 30 μg/mL acetonitrile. Control male Sprague Dawley rat plasma and the study plasma samples were stored at −80° C. until the day of analysis when they were thawed at room temperature. Control plasma was centrifuged (2,000 g for 10 min) and aliquoted (90 μL) into eppendorf tubes for preparation of standards and blank samples. Study samples were previously aliquoted (100 μL) into eppendorf tubes immediately following collection of the plasma. An aliquot (10 μL) of the appropriate acetonitrile stock was added to the control plasma (to give a final volume of 100 μL) to give the required calibration standards covering the range 1-3000 ng/mL. Double blank and blank samples were prepared by adding 10 μL of acetonitrile to 90 μL of blank plasma. Control male Sprague Dawley rat brain and the study brain samples were weighed after collection and stored at −80° C. until the day of analysis when they were thawed at room temperature. Once thawed brains were diluted with water (4 mL per gram of tissue) and homogenised using a mechanical homogeniser. An aliquot (100 μL) of each study sample was taken into Micronics tubes ready for analysis and sufficient aliquots (90 μL) of control brain homogenate prepared for preparation of standards and blanks. An aliquot (10 μL) of the appropriate acetonitrile stocks was added to the control brain homogenate (to give a final volume of 100 μL) to give the required calibration standards covering the range 1.5-5000 ng/g. Double blank and blank samples were prepared by adding 10 μL of acetonitrile to 90 μL of blank brain homogenate. Each plasma and brain homogenate sample, standard and blank (100 μL) was extracted with an aliquot (300 μL) of acetonitrile (containing 0.1% formic acid and 100 ng/mL of an appropriate internal standard). Double blanks were extracted with an aliquot (300 μL) of acetonitrile containing 0.1% formic acid). All samples, standards and blanks were then vortex mixed and centrifuged (2000 g for 15 min). An aliquot (50 μL) of the resulting supernatant was then taken into a 2 mL 96-deep well plate and diluted with acetonitrile:water (50:50 v/v) (150 μL) ready for analysis by a specific LC-MS/MS method. Control male Sprague Dawley rat CSF and the study CSF samples were stored at −80° C. until the day of analysis when they were thawed at room temperature. An aliquot (50 μL) of each study sample was taken into Micronics tubes ready for analysis and sufficient aliquots (45 μL) of control CSF prepared for preparation of standards and blanks. […]

[1] = CSF, CSF concentration, read-out: [CSF]
[2] = brain, total brain concentration, read-out: [Br]
[3] = brain, unbound brain, [Br] x Br Fu, read-out: [Bru]
[4] = plasma, total plasma concentration, read-out: [Pl]
[5] = plasma, unbound plasma, [Pl] x Pl Fu, read-out: [Plu]

COc1cnc(C(=O)Nc2ccc(F)c([C@]34CO[C@H](CF)[C@H]3CSC(N)=N4)c2)cn1 [Example 2, N-(3-((4aS,5S,7aS)-2-amino-5-(fluoromethyl)-4a,5,7,7a-tetrahydro-4H-furo[3,4-d][1,3]thiazin-7a-yl)-4-fluorophenyl)-5-methoxypyrazine-2-carboxamide]
concentration at 2 h [1]: 133 nM | Kp at 2 h (CSF, read-out: CSF:Plu): 0.6 | concentration at 4 h [1]: 201 nM | Kp at 4 h (CSF, read-out: CSF:Plu): 1.2 | concentration at 6 h [1]: 60 nM | Kp at 6 h (CSF, read-out: CSF:Plu): 0.7 | concentration at 8 h [1]: 68 nM | Kp at 8 h (CSF, read-out: CSF:Plu): 1.2 | Kp at 2 h (brain, read-out: Brtot:Pltot): 2.1 | Kp at 2 h (brain, read-out: Bru:Plu): 0.6 | concentration at 2 h [2]: 1780 nM | concentration at 2 h [3]: 118 nM | Kp at 4 h (brain, read-out: Brtot:Pltot): 2.1 | Kp at 4 h (brain, read-out: Bru:Plu): 0.5 | concentration at 4 h [2]: 1340 nM | concentration at 4 h [3]: 88 nM | Kp at 6 h (brain, read-out: Brtot:Pltot): 2 | Kp at 6 h (brain, read-out: Bru:Plu): 0.5 | concentration at 6 h [2]: 703 nM | concentration at 6 h [3]: 46 nM | Kp at 8 h (brain, read-out: Brtot:Pltot): 2.1 | Kp at 8 h (brain, read-out: Bru:Plu): 0.6 | concentration at 8 h [2]: 479 nM | concentration at 8 h [3]: 32 nM | concentration at 2 h [4]: 850 nM | concentration at 2 h [5]: 214 nM | concentration at 4 h [4]: 645 nM | concentration at 4 h [5]: 163 nM | concentration at 6 h [4]: 353 nM | concentration at 6 h [5]: 89 nM | concentration at 8 h [4]: 224 nM | concentration at 8 h [5]: 56 nM
